Like-named read-outs stand apart in the source and are kept apart here.
Tested on: K. pneumoniae NVT1001 strains with ESBL or AmpC β-lactamase plasmids
Assay: Etest MIC of β-lactams, OmpK35/36 loss, ΔramR and/or extended-spectrum β-lactamase and AmpC β-lactamase (Table 8)
Assay type: cell-based, Klebsiella pneumoniae
Conditions: Klebsiella pneumoniae
Method: DNA fragments of the resistance genes along with their flanking regions were amplified from clinical plasmids via PCR with specific primer pairs. The resulting PCR fragments were digested and then cloned into the plasmid pACYC177 or pACYC184. The resulting plasmids were then transformed into K. pneumoniae strain NVT1001 via electroporation. The recombinant bacteria were plated onto LB agar plates containing kanamycin (50 mg/L) or chloramphenicol (50 mg/L), and the presence of the cloned gene was confirmed via PCR and DNA sequencing.
The MICs of antibiotics were determined using the Etest (Biodisk AB, Sweden) according to the manufacturer's instructions. The MICs from the Etest, which fall between standard two-fold dilutions, were rounded up to the next highest two-fold value. The MICs of ceftazidime and cefotaxime against K. pneumoniae NVT1001 harbouring the pACYC177 plasmid with blaOXA-48 were further determined using a broth microdilution test according to the recommendations of the CLSI,^25 and the results were interpreted according to the breakpoints established by the CLSI in 2017.^25 Meanwhile, due to the lack of CLSI breakpoints in 2016 and 2017, the results for cephalothin were interpreted according to the breakpoints established by the CLSI in 2015,^26 and the results for moxifloxacin were interpreted according to the breakpoints established by the EUCAST in 2017.^27

[1] = CMY-2 on pACYC177, WT (NVT1001), read-out: MIC
[2] = CMY-2 on pACYC177, Δ35 (ΔompK35 mutant)
[3] = CMY-2 on pACYC177, Δ35/36 (ΔompK35/36 mutant)
[4] = CMY-2 on pACYC177, Δ36 (ΔompK36 mutant)
[5] = CMY-2 on pACYC177, ΔramR mutant
[6] = CMY-2 on pACYC177, ΔramRΔ35 (ΔramRΔompK35 mutant)
[7] = CMY-2 on pACYC177, ΔramRΔ35/36 (ΔramRΔompK35/36 mutant)
[8] = CMY-2 on pACYC177, ΔramRΔ36 (ΔramRΔompK36 mutant)
[9] = CTX-M-14 on pACYC177, WT (NVT1001), read-out: MIC
[10] = CTX-M-14 on pACYC177, Δ35 (ΔompK35 mutant)
[11] = CTX-M-14 on pACYC177, Δ35/36 (ΔompK35/36 mutant)
[12] = CTX-M-14 on pACYC177, Δ36 (ΔompK36 mutant)
[13] = CTX-M-14 on pACYC177, ΔramR mutant
[14] = CTX-M-14 on pACYC177, ΔramRΔ35 (ΔramRΔompK35 mutant)
[15] = CTX-M-14 on pACYC177, ΔramRΔ35/36 (ΔramRΔompK35/36 mutant)
[16] = CTX-M-14 on pACYC177, ΔramRΔ36 (ΔramRΔompK36 mutant)
[17] = CTX-M-15 on pACYC177, WT (NVT1001), read-out: MIC
[18] = CTX-M-15 on pACYC177, Δ35 (ΔompK35 mutant)
[19] = CTX-M-15 on pACYC177, Δ35/36 (ΔompK35/36 mutant)
[20] = CTX-M-15 on pACYC177, Δ36 (ΔompK36 mutant)
[21] = CTX-M-15 on pACYC177, ΔramR mutant
[22] = CTX-M-15 on pACYC177, ΔramRΔ35 (ΔramRΔompK35 mutant)
[23] = CTX-M-15 on pACYC177, ΔramRΔ35/36 (ΔramRΔompK35/36 mutant)
[24] = CTX-M-15 on pACYC177, ΔramRΔ36 (ΔramRΔompK36 mutant)
[25] = DHA-1-AmpR on pACYC177, WT (NVT1001), read-out: MIC
[26] = DHA-1-AmpR on pACYC177, Δ35 (ΔompK35 mutant)
[27] = DHA-1-AmpR on pACYC177, Δ35/36 (ΔompK35/36 mutant)
[28] = DHA-1-AmpR on pACYC177, Δ36 (ΔompK36 mutant)
[29] = DHA-1-AmpR on pACYC177, ΔramR mutant
[30] = DHA-1-AmpR on pACYC177, ΔramRΔ35 (ΔramRΔompK35 mutant)
[31] = DHA-1-AmpR on pACYC177, ΔramRΔ35/36 (ΔramRΔompK35/36 mutant)
[32] = DHA-1-AmpR on pACYC177, ΔramRΔ36 (ΔramRΔompK36 mutant)
[33] = SHV-12 on pACYC177, WT (NVT1001), read-out: MIC
[34] = SHV-12 on pACYC177, Δ35 (ΔompK35 mutant)
[35] = SHV-12 on pACYC177, Δ35/36 (ΔompK35/36 mutant)
[36] = SHV-12 on pACYC177, Δ36 (ΔompK36 mutant)
[37] = SHV-12 on pACYC177, ΔramR mutant
[38] = SHV-12 on pACYC177, ΔramRΔ35 (ΔramRΔompK35 mutant)
[39] = SHV-12 on pACYC177, ΔramRΔ35/36 (ΔramRΔompK35/36 mutant)
[40] = SHV-12 on pACYC177, ΔramRΔ36 (ΔramRΔompK36 mutant)
[41] = no supplemental plasmid, WT (NVT1001), read-out: MIC
[42] = no supplemental plasmid, Δ35 (ΔompK35 mutant)
[43] = no supplemental plasmid, Δ35/36 (ΔompK35/36 mutant)
[44] = no supplemental plasmid, Δ36 (ΔompK36 mutant)
[45] = no supplemental plasmid, ΔramR mutant
[46] = no supplemental plasmid, ΔramRΔ35 (ΔramRΔompK35 mutant)
[47] = no supplemental plasmid, ΔramRΔ35/36 (ΔramRΔompK35/36 mutant)
[48] = no supplemental plasmid, ΔramRΔ36 (ΔramRΔompK36 mutant)

Measured: MIC

C[C@@H](O)[C@H]1C(=O)N2C(C(=O)O)=C(S[C@@H]3CN[C@H](C(=O)Nc4cccc(C(=O)O)c4)C3)[C@H](C)[C@H]12 [Ertapenem]
4 µg/mL: [4] | [35] | [39] | [40] | [47] | [48]
0.5 µg/mL: [17] | [18] | [20] | [21] | [22]
> 32 µg/mL: [3] | [7] | [8] | [19] | [23] | [24] | [27] | [31] | [32]
0.03 µg/mL: [42] | [44]
2 µg/mL: [43]
16 µg/mL: [15] | [16]
8 µg/mL: [11]
0.25 µg/mL: [10] | [12] | [13] | [14]
0.015 µg/mL: [41]
0.125 µg/mL: [9] | [37] | [38] | [45] | [46]
1 µg/mL: [1] | [2] | [5] | [6] | [25] | [26] | [28] | [29] | [30]
0.06 µg/mL: [33] | [34] | [36]

C[C@@H](O)[C@H]1C(=O)N2C(C(=O)O)=C(SCCN=CN)C[C@H]12 [Imipenem]
1 µg/mL: [1] | [2] | [5] | [6] | [11] | [35] | [39]
16 µg/mL: [31] | [32]
> 32 µg/mL: [3]
32 µg/mL: [7] | [8] | [27]
0.25 µg/mL: [13] | [14] | [22] | [29] | [30] | [37] | [38] | [45] | [46]
4 µg/mL: [4] | [19]
2 µg/mL: [23] | [24]
0.5 µg/mL: [9] | [10] | [12] | [15] | [16] | [17] | [18] | [20] | [21] | [25] | [26] | [28] | [33] | [34] | [36] | [40] | [41] | [42] | [43] | [44] | [47] | [48]

C[C@@H](O)[C@H]1C(=O)N2C(C(=O)O)=C(S[C@@H]3CN[C@H](C(=O)N(C)C)C3)[C@H](C)[C@H]12 [Meropenem]
0.06 µg/mL: [9] | [37] | [38] | [41] | [42] | [44] | [45] | [46]
4 µg/mL: [23] | [24] | [31]
0.25 µg/mL: [1] | [2] | [5] | [6] | [17] | [18] | [20] | [21] | [22] | [25] | [26] | [28] | [30]
1 µg/mL: [35] | [40]
2 µg/mL: [4] | [11] | [15] | [16] | [39] | [47] | [48]
0.125 µg/mL: [10] | [12] | [13] | [14] | [29] | [33] | [34] | [36]
0.5 µg/mL: [43]
8 µg/mL: [7] | [8] | [19] | [27] | [32]
16 µg/mL: [3]
